# According to patent US8883192B2, “Compositions and methods for reducing or preventing obesity” (Nestec S.A., priority 2004, dated 2014):
# Assays:
# [1] = test system: rats after surgically-induced menopause; details: cited from earlier work
# topoisomerase II = details: cited from earlier work
# tyrosine protein kinase = details: cited from earlier work
# angiogenesis = details: cited from earlier work
# rat adipocytes = details: cited from earlier work
# [2] = Metabolic profile of isoflavones and their metabolites in blood of dogs; assay type: in vivo, dog; details: blood of dogs tested; FIG. 8B
# Excerpt: The following measurements were made for each animal: • Body weight, body condition score, DEXA. • Plasma concentrations of isoflavones and their metabolites • Blood leptin • Intravenous glucose tolerance test • Oxidative stress measurement (isoprostanes: 8-iso-prostaglandin F2α, formed from arachidonic acid in phospholipids by free radical reaction): 3-month samples
# The metabolic profiles of isoflavones and their metabolites in the blood of humans (FIG. 8A) and dogs (FIG. 8B) were compared.
# [3] = cited from earlier work
# estrogen receptor (ER) = details: compared with other isoflavones; cited from earlier work
structure (smiles),measurement,setting,value
COc1cc2c(=O)c(-c3ccc(O)cc3)coc2cc1O [glycitein],body fat accumulation,[1],suppressing body fat accumulation
O=c1c(-c2ccc(O)cc2)coc2cc(O)cc(O)c12 [genistein],inhibition of topoisomerase II,topoisomerase II,inhibitor
same,inhibition of tyrosine protein kinase,tyrosine protein kinase,inhibits
same,inhibition of angiogenesis,angiogenesis,inhibits angiogenesis
same,basal and epinephrine-stimulated lipolysis,rat adipocytes,enhanced
same,basal and insulin-stimulated lipogenesis,rat adipocytes,inhibited
"O=c1c(-c2ccc(O)cc2)coc2cc(O)ccc12 [Daidzein, daidzein]",body fat accumulation,[1],suppressing body fat accumulation
same,basal and epinephrine-stimulated lipolysis,rat adipocytes,enhanced
same,basal and insulin-stimulated lipogenesis,rat adipocytes,inhibited
Oc1ccc([C@H]2COc3cc(O)ccc3C2)cc1 [Equol],form of isoflavone metabolite in the blood,[2],predominant form of isoflavone metabolite
same,antioxidant activity,"[3]; compared with all the isoflavones tested, Setchell 2002",greatest antioxidant activity of all the isoflavones tested
same,induction of estrogen receptor (ER)-responsive transcription (estrogenic activity),estrogen receptor (ER),more strongly than any other isoflavones
O=C1c2ccc(O)cc2OCC1c1ccc(O)cc1 (stereo not shown) [dihydrodaidzein],free radical scavenging activities,[3]; Jiang 2003,appears to have free radical scavenging activities
